For data set [1] the following is noted: 2:1 (v/v) dioxane:water mixture; cited from earlier work.
Data set [2] can be described thus: Dissolution of the powder in aqueous solution (equivalent of 4 g/l piroxicam, sample after 15 min, HPLC). It is filed as physicochemical. To be noted: equivalent of 4 g/l of piroxicam in aqueous solution at 37° C.

Each structure is given as a SMILES string.

With `CN1C(C(=O)Nc2ccccn2)=C(O)c2ccccc2S1(=O)=O` [piroxicam], in data set [1], the “pKa value of the enol functional group” value is on record as around 2. In data set [2], the “Dissolution of the piroxicam (g/l)” value was “less than 0.2 g/l”. Also, the “Dissolution of the piroxicam” value in data set [2] (listed as Piroxicam) is below 0.2 g/L.

These data come from patent publication US9243076B2 (PIERRE FABRE MEDICAMENT, priority 2004, dated 2016).
